Source: US20060020042A1, “Memantine for the treatment of mild and mild to moderate Alzheimer's disease” (Forest Laboratories, Inc., priority 2004, published 2006)

Assays:
[1] = test system: outpatients with mild-to-moderate Alzheimer's disease; test: ADCS-ADL in randomized, double-blind, placebo-controlled study; assay type: in vivo, human; settings: Week 24, ITT, 20 mg/day
Protocol: In the study of the present invention, there were approximately 400 patients enrolled across 42 centers. Evaluation of primary efficacy was achieved by Alzheimer's Disease Assessment Scale-cognitive subscale (ADAS-cog) and the Clinician's Interview-Based Impression of Change including caregiver information (CIBIC-plus). Secondary efficacy was determined using Alzheimer's disease Cooperative Study-Activities of Daily Living (ADCS-ADL) and Neuropsychiatric Inventory (NPI) criteria. The ADCS-ADL inventory consists of 23 questions used to measure the functional capabilities of patients with dementia. These questions are selected from a larger set of 49 questions in the original ADL scale. A more common selection is of 19 questions from the same 49 question group. Each ADL item comprises a series of hierarchical sub-questions, ranging from the highest level of independent performance of each ADL to complete loss. The ADSC-ADL Inventory total score ranges from 0 (lower functioning status) to 78 (higher functioning status). A higher score indicates a better functioning status. […] Results were evaluated over seven clinical visits; at initial screening, baseline, and the end of weeks 4, 8, 12, 18 and 24. […] Descriptive statistics were calculated by visit. […]

NMDA receptor = settings: uncompetitive antagonist; cited from earlier work

## CC12CC3CC(C)(C1)CC(N)(C3)C2 [Memantine, 1-amino-3,5-dimethyladamantane]
[1]; LOCF analysis, p=0.890
  ADCS-ADL Difference (memantine minus placebo, LS mean): 0.1
[1]; OC analysis, p=0.975
  ADCS-ADL Difference (memantine minus placebo, LS mean): 0.0
NMDA receptor
  affinity for the NMDA receptor: moderate affinity
